Laboratory results: PMC11868579 (Nature Communications, 2024)
pKd: −log10 of the molar value. “And” between values parts separate entries of the source, which are not always exact repeats. Equal entries are not always repeated.

Columns and labels:
[1] = molecular target: T1, eIF4E minor variant D127N (N127) (Homo sapiens, UniProt P06730, D127N); assay: Isothermal titration calorimetry, eIF4E minor variant; assay type: binding
T1 construct: made in house; host or cells: E. coli BL21-CodonPlus (DE3)-RIPL
Experimental: ITC experiments were performed on either a MicroCal VP-ITC or a MicroCal Auto-ITC200 at 25 °C in a buffer comprising 50 mM HEPES, 100 mM NaCl, 1 mM TCEP and 5% DMSO at pH 7.5. Typical titrations on the MicroCal VP-ITC were performed using 17 × 16.4 µL injections with a 250 s spacing between each injection and with a stirring speed of 307 rpm. Typical titrations on the MicroCal Auto-ITC200 were performed using 12 × 3 µL injections with a 150 s spacing between each injection and with a stirring speed of 750 rpm. ITC data analyses were performed with Origin 7.0 software using the “One Set of Sites” model.

SW620 cells = assay: CellTiter-Blue cell viability, SW620; assay type: cell-based, human; details: SW620, 4 days
Experimental: Cell viability was measured by CellTiter-Blue® Cell Viability Assay. Cells were seeded in 96 well plates (Corning, cat#353072) and left overnight. Compounds were added at a range of concentrations and plates incubated at 37 °C for 96 hr. Cell titre blue reagent (Promega, Hampshire, UK, cat# G8081) was added (5 μl/well) and incubated for a further 2 h at 37 °C. Fluorescence (579Ex/584Em) was measured using a PHERAstar plate reader.
Supplementary Fig. 10 Determination of the effects of compound 4 on protein synthesis and viability. a HEK293 cells were transfected with protein synthesis reporter expressing bicistonic mRNA with a cap-dependent luciferase reporter and a cap-independent luciferase driven by a viral IRES. Cells were treated with 1 or 10 µM with compound 4 for 24 hr. Luminescence was measured using the Dual-glo luciferase assay (mean ± SEM from 3 biological replicates). b SW620 cells were transfected with a c-Myc-regulated firefly luciferase expression reporter or a constitutive CMV promoter-regulated renilla luciferase reporter. Cells were treated for 24 hr with 1 or 10 µM compound 4 or the […] kinase inhibitor AZD8055 as positive control (mean ± SEM from 3 biological replicates). […]
vs 1 µM AZD8055). c Cell viability measured by cell titre blue assay was performed in SW620 cells treated with compound 4 for 4 days (mean ± SEM from 3 biological replicates). […]

eIF4E L85R = molecular target: T2, eIF4E L85R (Homo sapiens, UniProt P06730, L85R); assay: CETSA in eIF4E-dTAG model expressing L85R eIF4E; assay type: cell-based; details: intact cells
T2 construct: expressed in transfected cells; host or cells: H1299 eIF4E-dTAG clone C3-1, eIF4E-dTAG depleted with dTAG^V-1 before compound
Experimental: Cells (1.5 × 10^6 cells) were plated into 75 cm^2 flasks and allowed to attached overnight. After treatment with compound 4 or 5 for 6 h, they were harvested by trypsinisation and washed x2 in ice cold PBS. Cells were resuspended in 1 ml of cold PBS supplemented with protease and phosphatase inhibitors (Fisher Scientific, cat#1861281). Resuspended cells were divided into 100 μl aliquots and centrifuged at 300 x g for 3 min at 4 °C. Following centrifugation, 75μl of supernatant was removed and cells resuspended in the remaining volume. Cell suspensions were heated at 40.9, 43.7, 48.1, 52.9, 57.6, 62.4, 67.2, 71.9, 76.3 and 79.1 °C for 3 mins followed by cooling at 20 °C for 3 min[25]. Suspensions were freeze-thawed twice using liquid nitrogen. Soluble fractions were separated from cell debris by centrifuging at 20,000 x g for 30 min at 4 °C. Samples were then analysed by Western Blot.
Supplementary Fig. 18. Comparison of compound 4 binding to wild-type or […]
Cells were treated with dTAGV-1 (1 μM) for 16 hr. Compound 4 (10 μM) or compound 5 (10 μM) was then added for 6 hrs.
Vi nculin was used for loading control. Blots are from one biological repeat. b […]
was used as loading control . c Cells were treated with dTAGV -1 (1 μM) for 16 hr.
Compound 4 (50 μM) or compound 5 (50 μM) was then added for 6 hrs. […]
following incubation at 48.1 °C. Vinculin was used for loaing control. All blots are […]

eIF4E–4E-BP1 interaction = eIF4E–4E-BP1 interaction (Homo sapiens, UniProt P06730); assay: Electro-chemiluminescent binding assay, eIF4E:4E-BP1, SW620 cell lysates; assay type: biochemical; parameters: endogenous in cells; host or cells: SW620 cell lysates; details: for 4E-BP1:eIF4E luminescence signal normalised to DMSO control: SW620, Expt 1, Expt 2, Fig. 4d
Experimental: This assay uses plates with carbon electrodes and electro-chemiluminescent labels (SULFO-TAGs) that are conjugated to detection antibodies. When an electric current is applied to the plate electrodes the SULFO-TAG labels will emit light that is measured to quantify analytes in the sample. […] The plates were washed with 3 ×150 µl/well MSD wash buffer (cat#R61AA-1; 0.2% Tween-20 in PBS), then blocked with 150 µl/well block buffer (MSD, cat# R93AA) for 1 h. […] The incubated plates were washed 4x in 150 µl in MSD wash buffer and were re-blocked by the addition of 25 μl of blocking buffer containing a 1:500 dilution of the secondary antibody and incubated for 1 hr at RT with rotational shaking. […] Plates were then washed again 4x in 150 µl in MSD wash buffer and 25 μl of a 1:50 dilution of Goat anti-rabbit Sulfo-Tag (MSD, Cat# R32AB-1) in MSD blocking buffer was added and the plates incubated for 1 h at RT with rotational shaking. After a final wash step, 150 μl Read Buffer T4X (MSD, Cat# R92-TC2) was added and the plate read using the MSD QuickPlex SQ 120 plate reader.

eIF4E–4E-BP1 interaction, sequence (P06730 2-217 limits assumed): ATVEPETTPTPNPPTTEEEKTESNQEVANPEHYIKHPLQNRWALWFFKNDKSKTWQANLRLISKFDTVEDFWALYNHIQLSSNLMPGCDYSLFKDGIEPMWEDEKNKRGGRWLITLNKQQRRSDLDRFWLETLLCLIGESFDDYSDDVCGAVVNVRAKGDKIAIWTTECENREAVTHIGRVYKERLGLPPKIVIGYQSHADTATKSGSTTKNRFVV
T1 sequence (P06730 36-217 D127N): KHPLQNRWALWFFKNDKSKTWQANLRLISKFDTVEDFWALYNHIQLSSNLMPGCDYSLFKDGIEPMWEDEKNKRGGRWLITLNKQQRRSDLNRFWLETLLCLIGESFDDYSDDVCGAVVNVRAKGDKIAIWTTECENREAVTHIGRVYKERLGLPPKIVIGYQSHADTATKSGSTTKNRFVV
T2 sequence (P06730 whole entry L85R): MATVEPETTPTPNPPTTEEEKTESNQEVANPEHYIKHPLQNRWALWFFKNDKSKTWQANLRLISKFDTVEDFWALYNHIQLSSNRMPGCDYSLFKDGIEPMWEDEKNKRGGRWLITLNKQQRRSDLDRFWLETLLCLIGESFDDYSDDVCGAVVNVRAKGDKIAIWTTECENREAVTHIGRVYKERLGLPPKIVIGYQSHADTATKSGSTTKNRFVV

For `CC[C@H](O[C@H](C)CO)c1ccc(-c2ccccc2F)cc1NCCO` [Compound 4], the “enthalpic contribution DH” value ([1]; ITC, eIF4E D127N) was -12.0 kcal/mol and -12.0 ± 0.5 kcal/mol, the “entropic penalty -TDS” value ([1]; ITC, eIF4E D127N) was 1.4 ± 0.5 kcal/mol and the “LE (ligand efficiency)” value ([1]; minor variant D127N) was 0.42 (kcal/mol)/heavy atom. The pKd ([1]; read-out: eIF4E Kd, ITC, minor variant D127N) was 7.77, the antiproliferative activity (SW620 cells) was “lacked on-target antiproliferative activity” and the “thermal stabilisation of L85R eIF4E” value (eIF4E L85R) was “showed evidence for compound 4 binding”. The “4E-BP1:eIF4E luminescence signal normalised to DMSO control” value (eIF4E–4E-BP1 interaction; 0.4 μM) was 98.1% and 93.2%, the “4E-BP1:eIF4E luminescence signal normalised to DMSO control” value (eIF4E–4E-BP1 interaction; 4 μM) was 74.9% and 84.1% and the “4E-BP1:eIF4E luminescence signal normalised to DMSO control” value (eIF4E–4E-BP1 interaction; 12 μM) was 74.8% and 76%. The “4E-BP1:eIF4E luminescence signal normalised to DMSO control” value (eIF4E–4E-BP1 interaction; 40 μM) was 76.2% and 83.6%, the “effect on 4E-BP1 binding to eIF4E” value (eIF4E–4E-BP1 interaction; SW620 cell lysates) was “not 4E-BP1 binding to eIF4E” and the “4E-BP1:eIF4E SW620, luminescence ratio normalised to DMSO control” value (eIF4E–4E-BP1 interaction; SW620 lysates, 100 µM, 30 min, single experiments Expt 1, Expt 2) was 103% and 91%.
